The text below walks through data of US20260376283A1, “A METHOD IMPLEMENTING MORPHOLOGICAL CHANGES OF EXTRACELLULAR ORGANELLE VESICLES SO AS TO EXAMINE THE TRANSPORTING ACTIVITY OF MEMBRANE TRANSPORT PROTEINS AND OTHER RELATED METHODS” (PARIS SCIENCES ET LETTRES, priority 2023, published 2026).

Common to all, as to assay type: biochemical
The subject of assay [1] is Endoplasmic Reticulum extracellular organelle vesicle (SERCA pump). In words: SERCA specificity: ER vesicle response to CaCl2 (Example 5). Particulars: role: substrate, CaCl2 30 mOsm/L, ATP 100 μM, FIG. 7. The procedure: (§1) In this example, an Endoplasmic Reticulum extracellular organelle vesicle and a mitochondria extracellular organelle vesicle are isolated simultaneously with micropipettes, and visualized. ER and mitochondria extracellular organelle vesicles were both put in contact with CaCl2 (30 mOsm/L) and ATP (100 μM) during one hour.
(§2) FIG. 7 represents Endoplasmic Reticulum extracellular organelle vesicle and mitochondria extracellular organelle vesicle are maintained thanks two micropipettes into a HKM diluted buffer (30 mOsm/L). These extracellular organelle vesicles were isolated thanks to ER and mitochondria resident proteins, over-expressed by COS7 cells, before organelle vesicles extraction.
(§3) At t=0s, CaCl2 (30 mOsm/L) and ATP (100 μM) were added. Dotted line circles all correspond to the size of the vesicle before contacting with CaCl2.

The subject of assay [2] is nucleus cell component (SERCA pump). As to the kind of experiment: Nucleus cell component response to CaCl2 (Example 6). The following applies: role: substrate, CaCl2 60 mOsm/L / 20 mOsm/L, ATP 100 μM, FIG. 8. The procedure: (§4) In this example, an Endoplasmic Reticulum extracellular organelle vesicle and a nucleus cell component are isolated together from a same cell with one micropipette, and visualized. ER extracellular organelle vesicle and nucleus cell component were both put in contact with CaCl2 (20 mOsm/L) and ATP (100 μM) during 5 minutes.
(§5) FIG. 8 represents Endoplasmic Reticulum extracellular organelle vesicle and nucleus cell component are maintained thanks one micropipette into a HKM diluted buffer (30 mOsm/L). The extracellular organelle vesicle and the nucleus cell component were respectively isolated thanks to ER and nucleus probes, over-expressed by COS7 cells, before organelle vesicle and nucleus extraction.
(§6) At t=0s, CaCl2 (60 mOsm/L) and ATP (100 μM) were added. Dotted line circle corresponds to the size of the endoplasmic reticulum vesicle before contacting with CaCl2.

Assay [3] relates to mitochondria extracellular organelle vesicle. In words: SERCA specificity: mitochondria vesicle response to CaCl2 (Example 5). The following applies: role: substrate, CaCl2 30 mOsm/L, ATP 100 μM, FIG. 7. The procedure:
as §1, §2, §3

The subject of assay [4] is ER extracellular organelle vesicle. As to the kind of experiment: Ca2+ internalization in ER extracellular organelle vesicle by Fluo8-AM fluorescence (Example 3). The following applies: role: substrate, CaCl2 30 mOsm/L, ATP 100 μM, FIG. 5. The procedure:
FIG. 5 represents an ER extracellular organelle vesicle which is maintained thanks to a micropipette into a HKM diluted buffer (20 mOsm/L). This extracellular organelle vesicle has been isolated thanks to an ER resident protein (KDEL), over-expressed by COS7 cells, before organelle vesicles extraction. Before organelle extraction, cells were incubated during 1 h with a fluorophore called “Fluo8-AM” to report for calcium volumic concentration in organelles thanks to green fluorescence emission.
At t=0s, CaCl2 (30 mOsm/L) and ATP (100 μM) were added. Fluorescence microscopy snaps are visualized on FIG. 5 and show calcium concentration inside the ER extracellular organelle vesicle during the experiment.

The test system of assay [5] is Endoplasmic Reticulum extracellular organelle vesicle (SERCA over-expressed). In words: ER vesicle with over-expressed SERCA, response to CaCl2 (Example 7). The following applies: role: substrate, CaCl2 60 mOsm/L, ATP 100 μM. From the text:
(§7) In this example, an Endoplasmic Reticulum extracellular organelle vesicle and a plasma membrane cell component are isolated with micropipettes.
(§8) The SERCA protein is over-expressed in cell 1 on its native organelle, the endoplasmic reticulum. In cell 2, SERCA is relocalized by genetic construction on the plasma membrane cell component. This finally serves to isolate with micropipettes, one endoplasmic reticulum extracellular vesicle with SERCA extracted from cell 1 and one plasma membrane cell component enriched with SERCA deriving from cell 2.
(§9) These extracellular organelle vesicle and plasma membrane cell component were isolated thanks to ER and plasma membrane protein probes, over-expressed by COS7 cells, before organelle vesicle and plasma membrane cell component extraction.
(§10) ER extracellular vesicle and plasma membrane cell component were both put in contact with CaCl2 (60 mOsm/L) and ATP (100 μM) during 5 minutes.
(§11) At t=0s, CaCl2 (60 mOsm/L) and ATP (100 μM) were added.

Assay [6] relates to Endoplasmic Reticulum extracellular organelle vesicle (SERCA pump). As to the kind of experiment: ER vesicle response to CaCl2 compared with nucleus (Example 6). The following applies: role: substrate, CaCl2 60 mOsm/L / 20 mOsm/L, ATP 100 μM, FIG. 8. The method, then:
as §4, §5, §6

Assay [7] relates to ion pump SERCA localized on Endoplasmic Reticulum vesicles. As to the kind of experiment: Ca2+ pump transporting activity by morphological change (deflation/re-swelling) of ER extracellular organelle vesicles (Example 1). The procedure:
An initial HKM buffer was prepared with 50 mM Hepes (known as 2-[4-(2-hydroxyethyl)piperazin-1-yl]ethanesulfonic acid), 120 mM potassium acetate, and 1 mM MgCl2 (in Milli-Q water) at pH 7.4. Said initial HKM buffer has an osmolarity of 280±15 mOsm/L.
Then, a membrane tension is applied on cells so as to produce extracellular organelle vesicles without lysing them. At that step, the extracellular organelle vesicles are released (or produced) thanks to the lysis and the removal of the plasma membrane. The membrane tension is carried out by micro-manipulation of the cells under confocal microscope thanks to a micropipette aspiration technique. Micropipette radius is around 1 μm. Thanks to a slight aspiration, a bilayer tongue of the plasma membrane was sucked into the micropipette. The aspiration is then increased at an approximate rate of 10 mbar/min, causing a proportional increase in the bilayer surface tension. At a certain applied tension (e.g. surface tension<0.75 mN/m), the plasma membrane ruptured thanks to a pore opening in the plasma membrane and the extracellular organelle vesicles are released (or extracted).
After extraction, one or more extracellular organelle vesicles are isolated using a micropipette. The micropipettes are used to hold a vesicle during the following methods of the present invention. Before the addition of molecules (ions, sugars or drug molecules), an acquisition is launched to observe the initial size of the vesicle.
Once the acquisition is started, the extracellular organelle vesicle, held by the micropipette is passed through an aqueous solution containing CaCl2 (60 mOsm/L) and ATP (100 μM). Contacting calcium ions with said extracellular organelle vesicle increases the osmolarity of the extravesicular aqueous medium. […] This innovative process allows to examine the transporting activity of the ion pump SERCA localized on Endoplasmic Reticulum vesicles.
FIG. 1 A) represents an extracellular organelle vesicle of endoplasmic reticulum (ER) which is maintained thanks to a micropipette into a HKM diluted buffer (20 mOsm/L) as an extravesicular aqueous medium. This extracellular organelle vesicle has been isolated thanks to an ER resident protein (KDEL), over-expressed by COS7 cells, before organelle vesicles extraction.
At t=0s, CaCl2 (60 mOsm/L) and ATP (100 μM) were added. At t=20s, the ER extracellular organelle vesicle is deflated: it reached its minimum volume (Vi1) and its associated maximum fluorescence signal (Fl1).
Once the acquisition is started, the ER extracellular organelle vesicle, held by the micropipette is passed through an aqueous solution containing sucrose (60 mOsm). […] Sucrose can thus be used as a control or reference in the method of the present invention.

The test system of assay [8] is plasma membrane cell component enriched with SERCA. In words: Plasma membrane cell component enriched with SERCA, response to CaCl2 (Example 7). The following applies: role: substrate, CaCl2 60 mOsm/L, ATP 100 μM, SERCA relocalized.
Text: as §7, §8, §9, §10, §11

Assay [9] relates to Ca^2+ pump of the Endoplasmic Reticulum. In words: Abnormal expression/activity of Ca2+ pump of ER by vesicle morphological change (Example 2). The method, then: FIG. 3 A) represents an extracellular organelle vesicle of endoplasmic reticulum (ER) which is maintained thanks to a micropipette into a HKM diluted buffer (20 mOsm/L) as an extravesicular aqueous medium. This extracellular organelle vesicle has been isolated thanks to an ER resident protein (KDEL), over-expressed by COS7 cells, before organelle vesicles extraction.
At t=0s, CaCl2 (60 mOsm/L) and ATP (100 μM) were added. At t=20s, the ER extracellular organelle vesicle is deflated: it reached its minimum volume (Vi1) and its associated maximum fluorescence signal (Fi1).

Setting [10] is: role: substrate, CaCl2 60 mOsm/L, ATP 100 μM, FIG. 1.
The mark [11] stands for this setting: role: substrate, CaCl2 60 mOsm/L, ATP 100 μM, FIG. 3.

Turning to `[Ca+2].[Cl-].[Cl-]` [CaCl2], the “ER vesicle volume 1h after contacting” value in assay [1] is given as “exhibits the same volume as its initial one”. For the same molecule, the “nucleus cell component response 5 min after contacting” value in [2] was “has deflated with no re-swelling”. Besides, the “mitochondria vesicle volume 1h after contacting” value in assay [3] was “has deflated”. In addition, in assay [4], the “internalization in the ER extracellular organelle vesicle” value is on record as “internalized in the ER extracellular organelle vesicle”. In addition, the “Fluo8-AM fluorescence signal (calcium concentration inside vesicle)” value in [4] (cells incubated 1 h with Fluo8-AM) is listed as “Fluorescence signal is rising after addition of CaCl2”. Further, the “ER vesicle volume 5 min after contacting” value in [5] and in [6] was “exhibits a bigger volume as its initial one” each time. Further, in assay [7] (role: substrate, 60 mOsm/L, following minutes, CaCl2 with ATP (100 μM), sucrose as control), the “re-swelling process of vesicle” value is “a re-swelling process is gradually observed”. Also, in assay [7] (role: substrate, CaCl2 60 mOsm/L with ATP (100 μM), or sucrose 60 mOsm without ATP stated, vesicle internal 20 mOsm/L, COS7 ER vesicle), the “deflation of vesicle on contacting” value is recorded as “the vesicle deflates in a few seconds”. The “time at which vesicle is deflated to minimum volume (Vi1) and maximum fluorescence” value in [7] (setting [10]) is reported as 20 s. In addition, the “time at which vesicle re-swells to final volume and fluorescence (Vf and Ff)” value in assay [7] (setting [10]) and in assay [9] (setting [11]) was 90 s in each case. The “swelling state of vesicle at t=100s” value in assay [7] (role: substrate; CaCl2 60 mOsm/L; ATP 100 μM; FIG. 1 B)) is reported as “the vesicle has almost reached its initial state of swelling”. In addition, the “Vf/Vi1 and Vf/Vi versus reference ratio (transporting activity of SERCA)” value in assay [7] (role: substrate, sucrose as reference compound, FIGS. 1 and 2) was “Vf/Vi1>Vf,ref/Vi1,ref, and Vf/Vi>Vf,ref/Vi,ref”. In addition, the “plasma membrane cell component response 5 min after contacting” value in [8] was “has deflated”. The “time at which vesicle is deflated to minimum volume (Vi1) and maximum fluorescence (Fi1)” value in assay [9] (setting [11]) came to 20 s. The “vesicle volume at t=300s versus initial state” value in assay [9] (role: substrate; CaCl2 60 mOsm/L; ATP 100 μM; FIG. 3 B)) is listed as “reached a higher volume than the initial state”.
